Assay results published in US6780431B1, “Substituted benzylthiazolidine-2,4-dione derivatives” (Kyorin Pharmaceutical Co., Ltd., priority 1999, dated 2004).
Like-named read-outs stand apart in the source and are kept apart here.

Tests used:
[1] = molecular target: T1, human PPARγ ligand-binding domain fused with yeast transcription factor DNA-binding domain (Homo sapiens, UniProt P37231); experiment: Test of transactivation on PPARγ (CHO cells, reporter plasmid, CAT activity)
T1 sequence (P37231 238-503 limits assumed): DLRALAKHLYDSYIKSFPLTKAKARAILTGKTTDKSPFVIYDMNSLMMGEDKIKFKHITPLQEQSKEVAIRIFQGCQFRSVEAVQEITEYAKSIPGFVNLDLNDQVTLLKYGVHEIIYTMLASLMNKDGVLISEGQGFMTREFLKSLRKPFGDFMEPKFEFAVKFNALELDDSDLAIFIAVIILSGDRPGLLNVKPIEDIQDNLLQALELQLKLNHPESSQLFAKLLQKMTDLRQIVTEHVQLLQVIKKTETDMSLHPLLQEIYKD
Description: (§1) Test of Transactivation on Peroxisome Proliferator-activated Receptors α and β
(§2) After 24 hours, CAT activity and β-galactosidase activity were measured.

[2] = molecular target: T2, human type PPARα ligand-binding domain fused with yeast transcription factor DNA-binding domain (Homo sapiens, UniProt Q07869); experiment: Test of transactivation on PPARα (CHO cells, reporter plasmid, CAT activity)
T2 sequence (Q07869 239-466 limits assumed): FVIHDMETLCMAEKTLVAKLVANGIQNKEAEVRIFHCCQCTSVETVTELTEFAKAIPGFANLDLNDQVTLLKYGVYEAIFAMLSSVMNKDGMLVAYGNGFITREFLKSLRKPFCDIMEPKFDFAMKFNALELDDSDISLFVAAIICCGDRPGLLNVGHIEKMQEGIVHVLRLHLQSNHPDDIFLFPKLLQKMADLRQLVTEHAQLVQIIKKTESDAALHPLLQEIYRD
Description: as §1, §2

Row | melting point | EC50 [1] | EC50 [2] | EC50 ([2]; read-out: Transactivation PPARα EC50, CHO cells, 24 hours, CAT activity with β-galactosidase internal standard) | Compound
1 | 132 to 133 °C |  |  |  | CCCOc1ccc(CNC(=O)c2cc(CC3SC(=O)NC3=O)ccc2OC)cc1 (stereo not drawn) (hydrate or solvate) [Example 7]
2 | 198 to 200 °C | 290 nM | 490 nM |  | COc1ccc(CC2SC(=O)NC2=O)cc1C(=O)NCc1ccc(Br)cc1 (stereo not drawn) [Example 2]
3 | 130 to 132 °C | 300 nM | 430 nM |  | CCOc1ccc(CNC(=O)c2cc(CC3SC(=O)NC3=O)ccc2OC)cc1 (stereo not drawn) [Example 5]
4 |  | 1800 nM | 110 nM |  | CCCOc1ccc(CNC(=O)c2cc(CC3SC(=O)NC3=O)ccc2OC)cc1 (stereo not drawn) [Example 7]
5 |  | 280 nM | 220 nM |  | COc1ccc(CC2SC(=O)NC2=O)cc1C(=O)NCc1ccc(Cl)cc1Cl (stereo not drawn) [Example 8]
6 | 236.5 to 238.5 °C | 1600 nM | 530 nM |  | COc1ccc(CC2SC(=O)NC2=O)cc1C(=O)NCc1ccc([N+](=O)[O-])cc1 (stereo not drawn) [Example 1, N-[(4-Nitrophenyl)methyl]-5-[(2,4-dioxothiazolidin-5-yl)methyl]-2-methoxybenzamide]
7 |  | 110 nM | 760 nM |  | COc1ccc(CC2SC(=O)NC2=O)cc1C(=O)NCc1ccc(OC(C)C)cc1 (stereo not drawn) [Example 6]
8 | 79 to 81.5 °C |  |  |  | COc1ccc(CC2SC(=O)NC2=O)cc1C(=O)NCc1ccc(OC(C)C)cc1 (stereo not drawn) (hydrate or solvate) [Example 6]
9 |  |  |  | 1300 nM | CCCCC/C=C\C/C=C\C=C\[C@@H](O)C/C=C\CCCC(=O)O [(8S)-HETE, reference compound]
10 |  | 1100 nM | 700 nM |  | COc1ccc(CC2SC(=O)NC2=O)cc1C(=O)NCc1ccc(Cl)c(Cl)c1 (stereo not drawn) [Example 9]
11 |  | 360 nM | 180 nM |  | COc1ccc(CC2SC(=O)NC2=O)cc1C(=O)NCc1cccc(OC(F)(F)F)c1 (stereo not drawn) [Example 4]
12 | 188 to 189 °C |  |  |  | COc1ccc(CC2SC(=O)NC2=O)cc1C(=O)NCc1ccc(Cl)cc1Cl (stereo not drawn) (hydrate or solvate) [Example 8]
13 | 181 to 182 °C |  |  |  | COc1ccc(CC2SC(=O)NC2=O)cc1C(=O)NCc1ccc(Cl)c(Cl)c1 (stereo not drawn) (hydrate or solvate) [Example 9]
14 | 199 to 201 °C | 400 nM | 260 nM |  | COc1ccc(CC2SC(=O)NC2=O)cc1C(=O)NCc1ccc(Cl)cc1 (stereo not drawn) [Example 3]
